Active and inactive are the calls of the source. The rule behind the calls is not given here.
Experiments:
MCF7 = assay: Growth inhibition of human MCF7 cells at 10 uM after 72 hrs by MTS assay; format: functional; conditions: MCF7, 72 h, read-out: GI
[1] = Growth inhibition of human HCT116 cells at 10 uM after 72 hrs by MTS assay; format: functional; conditions: HCT-116, 72 h, read-out: GI
[2] = Growth inhibition of human HL60 cells at 10 uM after 72 hrs by MTS assay; format: functional; conditions: HL-60, 72 h, read-out: GI
KB = assay: Growth inhibition of human KB cells at 10 uM after 72 hrs by MTS assay; format: functional; conditions: read-out: GI
HL-60 [3] = assay: Induction of necrosis in intact human HL60 cells assessed as cytosolic LDH release at 50 uM; format: functional, cell-based
HL-60 [4] = assay: Induction of necrosis in intact human HL60 cells assessed as cytosolic LDH release at 1 uM; format: functional, cell-based
HL-60 [5] = assay: Induction of cell cycle arrest in human HL60 cells assessed as accumulation at G0/G1 phase at 50 nM after 48 hrs by propidium iodide staining based flow cytometry (reference value: 42.9%); format: functional
HL-60 [6] = assay: Induction of apoptosis in human HL60 cells assessed as intact cells level at 100 nM annexin V-PE and 7-AAD staining based by flow cytometry (reference value: 80.7%); format: functional
HL-60 [7] = assay: Induction of apoptosis in human HL60 cells assessed as early apoptotic cells level at 100 nM annexin V-PE and 7-AAD staining based by flow cytometry (reference value: 18.5%); format: functional
HL-60 [8] = assay: Induction of apoptosis in human HL60 cells assessed as dead cells level at 100 nM annexin V-PE and 7-AAD staining based by flow cytometry (reference value: 0.4%); format: functional
HL-60 [9] = assay: Induction of apoptosis in human HL60 cells assessed as late apoptosis cells level at 100 nM annexin V-PE and 7-AAD staining based by flow cytometry (reference value: 0.4%); format: functional
HL-60 [10] = assay: Induction of cell cycle arrest in human HL60 cells assessed as accumulation at G2/M phase at 50 nM after 48 hrs by propidium iodide staining based flow cytometry (reference value: 11.6%); format: functional
HL-60 [11] = assay: Induction of cell cycle arrest in human HL60 cells assessed as accumulation at subG1 phase at 50 nM after 48 hrs by propidium iodide staining based flow cytometry (reference value: 0.5%); format: functional
HL-60 [12] = assay: Induction of cell cycle arrest in human HL60 cells assessed as accumulation at S phase at 50 nM after 48 hrs by propidium iodide staining based flow cytometry (reference value: 45%); format: functional

SMILES	inhibition of growth at 10 µM (MCF7) [%]	inhibition of growth at 10 µM [1] [%]	inhibition of growth at 10 µM [2] [%]	inhibition of growth at 10 µM (KB) [%]	also measured
COC(=O)C1(Cc2ccc(OC)cc2)CC(=O)OC1c1ccc(C(F)(F)F)cc1 (centres undefined)	4	0	2	0	–
CC1=CC(=O)c2ccccc2C1=O	–	–	–	–	Activity (HL-60 [3]): Active
COC(=O)C1(Cc2ccccc2OC)CC(=O)OC1c1ccccc1 (centres undefined)	18	23	42	7	–
CCC1(c2ccccc2)OC(=O)CC1(Cc1ccc(OC)cc1)C(=O)OC (centres undefined)	21	28	30	11	–
CCC1(c2ccccc2)OC(=O)CC1(Cc1ccccc1)C(=O)OC (centres undefined)	12	25	17	22	–
COC(=O)C1(Cc2ccccc2)CC(=O)OC1c1cc(OC)c(OC)c(OC)c1 (centres undefined)	17	7	27	2	–
COC(=O)C1(Cc2ccc(OC)cc2)CC(=O)OC1c1ccco1 (centres undefined)	0	0	29	32	–
COC(=O)C1(Cc2ccccc2OC)CC(=O)OC1c1cc(OC)c(OC)c(OC)c1 (centres undefined)	12	19	22	6	–
COC(=O)C1(Cc2ccc3c(c2)OCO3)CC(=O)OC1c1ccccc1 (centres undefined)	11	18	18	0	–
COC(=O)C1(Cc2ccc(OC)cc2)CC(=O)OC1c1ccccc1C(F)(F)F (centres undefined)	0	0	23	31	–
COC(=O)C1(Cc2ccc(OC)cc2)CC(=O)OC1c1cccc(C(F)(F)F)c1 (centres undefined)	15	10	14	25	–
COC(=O)C1(Cc2cccc(C(F)(F)F)c2)CC(=O)OC1(C)c1ccccc1 (centres undefined)	20	22	21	21	–
COC(=O)[C@]1(Cc2ccc(OC)cc2)CC(=O)O[C@]1(C)c1ccccc1	0	0	24	15	–
CCCCCCC1OC(=O)CC1(Cc1ccc(OC)cc1)C(=O)OC (centres undefined)	28	12	8	13	–
COC(=O)C1(Cc2ccc(OC)cc2)CC(=O)OC1c1ccccc1 (centres undefined)	0	4	15	19	–
COc1cccc2c1C(=O)c1c(O)c3c(c(O)c1C2=O)C[C@@](O)(C(=O)CO)C[C@@H]3O[C@H]1C[C@H](N)[C@H](O)[C@H](C)O1 [DOXORUBICIN]	–	–	–	–	Activity (HL-60 [4]): inactive; Activity (HL-60 [5]): 23%; Activity (HL-60 [6]): 14.7%; Activity (HL-60 [7]): 81.65%; Activity (HL-60 [8]): 0.5%; Activity (HL-60 [9]): 3.15%; Activity (HL-60 [10]): 40%; Activity (HL-60 [11]): 4.5%; Activity (HL-60 [12]): 32.5%
COC(=O)C1(Cc2cccc(OC)c2)CC(=O)OC1c1ccccc1 (centres undefined)	12	14	37	0	–
COC(=O)C1(Cc2ccccc2OC)CC(=O)OC1(C)c1ccccc1 (centres undefined)	10	13	34	9	–
COC(=O)C1(Cc2ccccc2)CC(=O)OC1(C)C (centres undefined)	7	15	9	0	–
COC(=O)C1(Cc2ccc(OC)cc2)CC(=O)OC1c1ccc(F)cc1 (centres undefined)	4	0	37	33	–
COC(=O)C1(Cc2ccccc2C(F)(F)F)CC(=O)OC1c1ccccc1 (centres undefined)	35	25	28	42	–
COC(=O)C1(Cc2ccccc2)CC(=O)OC1(C)c1ccccc1 (centres undefined)	13	9	22	6	–
COC(=O)C1(Cc2ccc(OC)cc2)CC(=O)OC1(C)c1cc(OC)c(OC)c(OC)c1 (centres undefined)	7	8	24	0	–

Reference: ChEMBL document CHEMBL3352326, “Synthesis of 2,3-di- and 2,2,3-trisubstituted-3-methoxycarbonyl-γ-butyrolactones as potent antitumor agents” (Eur J Med Chem, 2015)
